According to patent US11801310B2, “Composition for improving the solubility of poorly soluble substances, use thereof and complex formulation containing thereof” (Industrial Technology Research Institute, priority 2017, dated 2023):
In brackets after ≈: the same amount, converted by molar mass.

Tests used:
[1] = Solubility test for loteprednol etabonate (LE), Example 1-1: different amino acids, oligopeptides or monosaccharide as stabilizer; assay type: physicochemical; details: aqueous with cosolvent or surfactant or cyclodextrin, thermodynamic from solid; LE feeding 4000 μg; re-dissolved in 2 mL deionized water, pH 5.5, room temperature, 0.22 μm filtered, HPLC
Method: The samples were formulated and analyzed according to the formulas shown in the following Table 1 and the methods described below at room temperature. […] After that, the mixture was dried in a vacuum environment to performing drying to remove the solvent therein and obtain a dried product. […] Next, the test sample was filtered with a 0.22 μm pore size filter to remove undissolved precipitate. Finally, the content of loteprednol etabonate (LE) in the test sample was analyzed by high performance liquid chromatography (HPLC).

[2] = Solubility test for LE, Example 1-2: histidine as stabilizer; assay type: physicochemical; details: secondary water, aqueous with cosolvent or surfactant or cyclodextrin; final volume 1 mL, pH 5.5, room temperature, 0.22 μm filtered, HPLC
Source text: The samples were formulated and analyzed according to the formulas shown in the following Table 3 and the methods described below at room temperature.
Hydroxypropyl-γ-cyclodextrin, a water-soluble polymer (hydroxypropyl methyl cellulose (HPMC) (molecular weight: 16676)), and histidine (His) as a stabilizer of the formulation were co-dissolved in secondary water to form a solution.
[…] After that, […], and the pH was adjusted to 5.5 with a 0.1 M HCl aqueous solution, and the final solution volume was fixed to 1 mL (the insufficient portion was replenished with secondary water) to form a test sample. Thereafter, the test sample was then filtered with a 0.22 μm pore size filter to remove undissolved precipitate. Finally, the content of loteprednol etabonate (LE) in the test sample was analyzed by high performance liquid chromatography (HPLC).

[3] = Solubility test for LE, Example 1-3: glutathione as stabilizer; assay type: physicochemical; details: secondary water, aqueous with cosolvent or surfactant or cyclodextrin; final volume 1 mL, pH 5.5, room temperature, 0.22 μm filtered, HPLC
Method: The samples were formulated and analyzed according to the formula shown in the following Table 5 and the methods described below at room temperature.
[…] After that, the mixture was treated by a rotary evaporator to completely remove methanol, and the pH was adjusted to 5.5 with a 1 M NaOH aqueous solution, and the final solution volume was fixed to 1 mL (the insufficient portion was replenished with secondary water) to form a test sample. Thereafter, the test sample was then filtered with a 0.22 μm pore size filter to remove undissolved precipitate. Finally, the content of loteprednol etabonate (LE) in the test sample was analyzed by high performance liquid chromatography (HPLC).

[4] = at 25° C.; cited from earlier work

Row | solubility [1] | solubility [2] | solubility [3] | Compound | Water solubility [4]
1 | 1.5 µg/mL (≈ 3.21 µM) | 1.5 µg/mL (≈ 3.21 µM) | 1.5 µg/mL (≈ 3.21 µM) | CCOC(=O)O[C@]1(C(=O)OCCl)CC[C@H]2[C@@H]3CCC4=CC(=O)C=C[C@]4(C)[C@H]3[C@@H](O)C[C@@]21C [LE, loteprednol etabonate] | –
2 | – | – | – | N[C@@H](CCC(=O)N[C@@H](CS)C(=O)NCC(=O)O)C(=O)O [GSH, glutathione] | 950 mM
3 | – | – | – | OC[C@@H](O)[C@@H](O)[C@H](O)[C@H](O)CO [Mannitol, mannitol] | 1190 mM
